Results taken from ChEMBL document CHEMBL1201862, “PubChem BioAssay data set” (2004).
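Assay format: 96-well plates, 48-hour exposure. GI50 is the concentration that inhibits growth by half.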 Calls of active or inactive are those of the source. Cut-off read from the data, not from the text of the source: active = GI50 up to about 1.1 µM and inactive = higher.

Assays:
Assay in all cases: NCI anticancer screen, dose series, 48 h
NCI/ADR-RES = test system: NCI/ADR-RES
OVCAR-3 = test system: OVCAR-3
SW-620 = test system: SW-620
MDA-N = test system: MDA-N
SR = test system: SR
K562 = test system: K562
OVCAR-8 = test system: OVCAR-8
786-0 = test system: 786-0
MCF7 = test system: MCF7
UACC-257 = test system: UACC-257
DU-145 = test system: DU-145
OVCAR-5 = test system: OVCAR-5
COLO 205 = test system: COLO 205
A549 = test system: A549
NCI-H23 = test system: NCI-H23
BT-549 = test system: BT-549
M14 = test system: M14
SK-MEL-5 = test system: SK-MEL-5
Malme-3M = test system: Malme-3M
U-251 = test system: U-251
LOX IMVI = test system: LOX IMVI
CAKI-1 = test system: CAKI-1
TK-10 = test system: TK-10
CCRF-CEM = test system: CCRF-CEM
SF-539 = test system: SF-539
MOLT-4 = test system: MOLT-4
SK-MEL-2 = test system: SK-MEL-2
HOP-62 = test system: HOP-62
SF-268 = test system: SF-268
NCI-H522 = test system: NCI-H522
SK-OV-3 = test system: SK-OV-3
T47D = test system: T47D
EKVX = test system: EKVX
UACC-62 = test system: UACC-62
NCI-H226 = test system: NCI-H226
PC-3 = test system: PC-3
HCT-15 = test system: HCT-15
IGROV-1 = test system: IGROV-1
MDA-MB-435 = test system: MDA-MB-435
ACHN = test system: ACHN
OVCAR-4 = test system: OVCAR-4
HT-29 = test system: HT-29
UO-31 = test system: UO-31
A498 = test system: A498
HCC 2998 = test system: HCC 2998
SN12C = test system: SN12C
SF-295 = test system: SF-295
HCT-116 = test system: HCT-116
KM12 = test system: KM12
MDA-MB-231 = test system: MDA-MB-231
RPMI-8226 = test system: RPMI-8226
NCI-H460 = test system: NCI-H460
SNB-75 = test system: SNB-75
SK-MEL-28 = test system: SK-MEL-28
HL-60 = test system: HL-60
HOP-92 = test system: HOP-92
SNB-19 = test system: SNB-19

Measured: GI50

CCCCNC(=S)Nc1nc(C(=O)NNC(=S)NCc2ccccc2)cs1
inactive: NCI/ADR-RES 30.1 µM | OVCAR-3 52.4 µM | SW-620 48.2 µM | MDA-N 39.9 µM | SR 8.24 µM | K562 34.4 µM | OVCAR-8 24.1 µM | 786-0 39.4 µM | MCF7 12.3 µM | UACC-257 20.2 µM | DU-145 39.6 µM | OVCAR-5 > 100 µM | COLO 205 33.9 µM | A549 52.4 µM | NCI-H23 75 µM | BT-549 67 µM | M14 38.6 µM | SK-MEL-5 16.3 µM | Malme-3M 50.5 µM | U-251 34.5 µM | LOX IMVI 18.7 µM | CAKI-1 29.6 µM | TK-10 49.8 µM | CCRF-CEM > 10 µM | SF-539 31.9 µM | MOLT-4 19.1 µM | SK-MEL-2 46.9 µM | HOP-62 > 100 µM | SF-268 20.6 µM | NCI-H522 48.5 µM | SK-OV-3 88.5 µM | T47D 13.2 µM | EKVX 42.8 µM | UACC-62 19 µM | NCI-H226 32.9 µM | PC-3 62.1 µM | IGROV-1 30.1 µM | MDA-MB-435 35.8 µM | ACHN 26.6 µM | OVCAR-4 35.3 µM | HT-29 37.2 µM | UO-31 23.9 µM | A498 > 100 µM | HCC 2998 36.6 µM | SN12C 31 µM | SF-295 37.5 µM | HCT-116 32.9 µM | KM12 49.1 µM | MDA-MB-231 66.4 µM | RPMI-8226 45.9 µM
10.2 µM: HCT-15

COc1cc(CC(C)=O)cc(OC)c1
31.6 µM: HCT-15
inactive: NCI/ADR-RES 52.4 µM | OVCAR-3 56.5 µM | SW-620 65.6 µM | MDA-N 27.4 µM | NCI-H460 > 100 µM | SR 26.6 µM | K562 33.3 µM | OVCAR-8 > 100 µM | 786-0 > 100 µM | MCF7 34.2 µM | UACC-257 > 100 µM | DU-145 > 100 µM | OVCAR-5 > 100 µM | COLO 205 > 100 µM | A549 > 100 µM | NCI-H23 > 100 µM | SNB-75 17.9 µM | BT-549 52.5 µM | M14 > 100 µM | SK-MEL-5 91.2 µM | Malme-3M 51.2 µM | U-251 63.5 µM | TK-10 > 100 µM | CCRF-CEM 29.8 µM | MOLT-4 24.7 µM | HOP-62 > 100 µM | SF-268 71.1 µM | SK-OV-3 > 100 µM | T47D 53.8 µM | EKVX 67.5 µM | UACC-62 60.3 µM | NCI-H226 50.9 µM | SK-MEL-28 > 100 µM | HL-60 27.3 µM | PC-3 11.3 µM | IGROV-1 74.1 µM | MDA-MB-435 41 µM | ACHN 76.7 µM | OVCAR-4 > 100 µM | HT-29 42.8 µM | UO-31 32.6 µM | A498 35 µM | HCC 2998 > 100 µM | SN12C 46.8 µM | HOP-92 29.9 µM | SF-295 91 µM | HCT-116 50.6 µM | SNB-19 > 100 µM | MDA-MB-231 36.3 µM | RPMI-8226 27.8 µM

C[C@H]1C(OCCOC2O[C@@H]3O[C@@]4(C)CC[C@H]5[C@H](C)CCC([C@H]2C)[C@@]35O4)O[C@@H]2O[C@@]3(C)CC[C@H]4[C@H](C)CCC1[C@@]24O3 (some centres undefined)
28.2 µM: HCT-15
inactive: NCI/ADR-RES 25.1 µM | OVCAR-3 28.1 µM | SW-620 44.4 µM | MDA-N 38.7 µM | NCI-H460 22.6 µM | SR 32.2 µM | K562 > 100 µM | OVCAR-8 5.3 µM | 786-0 27 µM | MCF7 37 µM | UACC-257 33.1 µM | DU-145 19.5 µM | OVCAR-5 50.7 µM | COLO 205 16.7 µM | A549 39.8 µM | NCI-H23 31.6 µM | SNB-75 25.9 µM | BT-549 95.7 µM | M14 32.1 µM | SK-MEL-5 15.3 µM | Malme-3M 15.8 µM | U-251 40.9 µM | LOX IMVI 23.7 µM | CAKI-1 37.2 µM | CCRF-CEM 30.5 µM | SF-539 55.7 µM | MOLT-4 58.6 µM | SK-MEL-2 17.7 µM | HOP-62 37.7 µM | SF-268 50.5 µM | SK-OV-3 74.6 µM | T47D 10.6 µM | UACC-62 61.2 µM | NCI-H226 28.2 µM | SK-MEL-28 61.5 µM | HL-60 24.9 µM | PC-3 28.5 µM | IGROV-1 24.8 µM | MDA-MB-435 38.4 µM | ACHN 40.3 µM | OVCAR-4 80.5 µM | HT-29 35.4 µM | A498 46.7 µM | HCC 2998 21.6 µM | SN12C 21 µM | HOP-92 45.3 µM | HCT-116 21 µM | SNB-19 33.9 µM | KM12 27.5 µM | MDA-MB-231 27.2 µM | RPMI-8226 58.6 µM
